Measured values from patent US5574062A, “Coumarin derivative and use thereof” (Morinaga Milk Industry Co., Ltd., priority 1993, dated 1996).
“And” between values parts separate entries of the source, which are not always exact repeats. Equal values may be shown once. Read-outs that look alike come from different tables or passages of the source.

Columns and labels:
5-lipoxygenase = target: T1, 5-lipoxygenase (Rattus norvegicus, UniProt P12527); experiment: 5-lipoxygenase inhibition assay (RBL-1 supernatant, arachidonic acid, HPLC of 5-HETE); format: biochemical, rat (basophilic leukemia cells RBL-1, ATCC CRL1378)
T1 construct: host or cells: RBL-1 (rat basophilic leukemia cells)
T1 sequence (P12527 1-673): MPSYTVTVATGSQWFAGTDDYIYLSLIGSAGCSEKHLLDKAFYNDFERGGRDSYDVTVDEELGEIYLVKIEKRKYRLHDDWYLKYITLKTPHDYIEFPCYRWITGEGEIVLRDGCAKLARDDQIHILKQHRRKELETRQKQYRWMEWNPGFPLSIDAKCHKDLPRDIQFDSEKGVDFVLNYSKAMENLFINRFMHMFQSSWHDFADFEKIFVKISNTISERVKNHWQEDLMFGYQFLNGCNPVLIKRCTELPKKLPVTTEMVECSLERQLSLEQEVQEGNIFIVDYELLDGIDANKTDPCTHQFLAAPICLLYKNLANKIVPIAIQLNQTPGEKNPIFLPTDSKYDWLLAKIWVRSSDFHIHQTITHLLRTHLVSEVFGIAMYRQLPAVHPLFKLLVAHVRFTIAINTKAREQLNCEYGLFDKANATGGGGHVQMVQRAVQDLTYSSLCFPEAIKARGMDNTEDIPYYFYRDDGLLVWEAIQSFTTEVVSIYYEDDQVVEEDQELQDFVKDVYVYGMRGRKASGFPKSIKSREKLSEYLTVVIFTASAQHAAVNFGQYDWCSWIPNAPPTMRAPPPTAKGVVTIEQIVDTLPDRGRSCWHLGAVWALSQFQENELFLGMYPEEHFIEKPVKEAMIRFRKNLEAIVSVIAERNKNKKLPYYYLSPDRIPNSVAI
Method: Rat basophilic leukemia cells (RBL-1, ATCC CRL1378) were cultured in Dulbecco modified Eagle's medium containing 10% new-born bovine serum.
Cultured cells were collected and washed twice with a 50 mM Tris-buffered saline (containing 154 mM sodium chloride, pH: 7.4, hereinafter described as TBS). The cell suspension (4×10^7 cells/ml) was then sonicated and centrifuged at 10,000×g for 10 minutes.
The resultant supernatant was used to prepare an assay solution.
To an aliquot (15 μl) of the enzyme solution (40 mU/ml equivalent) was added 185 μl of TBS, 50 μl of a 2 mM adenosine triphosphate in TBS, 50 μl of a 12 mM calcium chloride in TBS, 1 μl of a 3 mM indomethacin in ethanol solution, 1 μl of an aqueous 300 mM reduced glutathione solution, and 3 μl of varied concentrated test compounds solution in ethanol. The resultant mixture was incubated at 37° C. for 5 minutes. Subsequently, 3 μl of a 2.5 mM arachidonic acid solution in ethanol was added to incubate the mixture for 2 minutes at 37° C. The reaction was ceased by the addition of 600 μl of methanol. After being centrifuged at 10,000×g for 5 minutes, 5-hydroxyeicosatetraenoic acid recovered in the supernatant was separated with a reverse phase high-performance liquid chromatography equipped with a C-18 column and measured the absorption of diene at 234 nm to quantify the activity of the enzyme.
Using the compounds of the present invention prepared in the same manner as in Examples 1-30, and Examples 33-36 as test samples and known baicalein (purchased from Wako Junyaku Kogyo) represented by the following formula 30 as a control: [drawing 34] the tests were performed for dose dependent inhibition to estimate IC50 values
It was prepared in the same method as in Test Example 2.
They were measured in the same method as in Test Example 2.

12-lipoxygenase = target: T2, 12-lipoxygenase (Rattus norvegicus, UniProt F1LQ70); experiment: 12-lipoxygenase inhibition assay (rat platelet supernatant, arachidonic acid, HPLC of 12-HETE); format: biochemical, Sprague Dawley male rat (platelets); settings: for maximum inhibition ratio of 12-lipoxygenase / inhibition at 10 µM: at a compound concentration of 10^-5 M, IC50 not obtained; for maximum inhibition ratio of 12-lipoxygenase: 10 µM; for inhibition at 10 µM: read-out: maximum inhibition ratio of 12-lipoxygenase
T2 construct: The platelets were then sonicated at 4° C. and centrifuged at 100,000×g for 30 minutes to obtain a supernatant as a 12-lipoxygenase enzyme solution; from tissue; host or cells: Sprague Dawley rat platelets (from aortic blood), sonicated, 100,000 x g supernatant
T2 sequence (F1LQ70 1-663): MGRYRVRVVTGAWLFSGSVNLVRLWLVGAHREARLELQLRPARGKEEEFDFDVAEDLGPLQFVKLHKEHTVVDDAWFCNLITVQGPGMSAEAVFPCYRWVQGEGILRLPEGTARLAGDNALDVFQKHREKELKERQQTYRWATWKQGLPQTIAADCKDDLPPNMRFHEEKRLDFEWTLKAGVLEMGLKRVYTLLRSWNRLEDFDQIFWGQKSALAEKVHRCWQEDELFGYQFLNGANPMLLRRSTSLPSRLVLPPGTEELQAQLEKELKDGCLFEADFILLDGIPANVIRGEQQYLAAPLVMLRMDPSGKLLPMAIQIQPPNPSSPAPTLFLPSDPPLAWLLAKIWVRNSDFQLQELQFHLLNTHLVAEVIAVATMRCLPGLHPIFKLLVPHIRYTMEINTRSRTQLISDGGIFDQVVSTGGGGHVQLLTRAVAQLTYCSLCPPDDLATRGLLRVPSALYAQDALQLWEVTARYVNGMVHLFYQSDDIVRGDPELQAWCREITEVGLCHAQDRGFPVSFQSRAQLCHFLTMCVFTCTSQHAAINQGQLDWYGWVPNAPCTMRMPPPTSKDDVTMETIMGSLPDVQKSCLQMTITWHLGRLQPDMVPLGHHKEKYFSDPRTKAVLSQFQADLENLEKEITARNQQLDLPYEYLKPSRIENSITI
Method: A Sprague Dawley male rat was anesthetized with ether and bled from abdominal aorta using a syringe filled with about one-tenth volume of 3.8% sodium citrate. Blood was centrifuged at 180×g for 15 minutes at room temperature to pellet sanguineous platelet blood plasma. The resultant supernatant was again centrifuged at 1800×g for 10 minutes at 4° C. The pelleted platelets were rinsed twice with a washing buffer (50 mM Tris-hydrochloric acid buffer containing 154 mM sodium chloride and 2 mM EDTA, pH: 7.4). The platelets were then suspended in one-twentieth volume of a resuspension buffer (50 mM Tris-hydrochloric acid buffer containing 154 mM sodium chloride and 5.5 mM glucose, pH: 7.4). The platelets were then sonicated at 4° C. and centrifuged at 100,000×g for 30 minutes to obtain a supernatant as a 12-lipoxygenase enzyme solution.
The enzyme solution described above was diluted with the resuspension buffer above mentioned to prepare an assay solution so as to include about 2 mU/ml of 12-lipoxygenase. To an aliquot (300 μl) of the assay solution was added 1 μl of a 3 mM indomethacin-ethanol solution, 1 μl of an aqueous 300 mM reduced-glutathione solution, and 3 μl of varied concentrated test compounds solution in ethanol. The resultant mixture was incubated at 37° C. for 5 minutes. Subsequently, 3 μl of a 2.5 mM arachidonic acid solution in ethanol was added to incubate with for another 5 minutes at 37° C., then the reaction was ceased by the addition of 600 μl of methanol. After being centrifuged at 10,000×g for 5 minutes, 12-hydroxyeicosatetraenoic acid recovered in the supernatant was separated with a reverse phase high-performance liquid chromatography equipped with a C-18 column and measured the absorption of diene at 234 nm to quantify the activity of 12-lipoxygenase.
As test compounds were used the compounds of the present invention prepared in the same methods as in Example 4, Example 5 and Example 8 and the compounds prepared in the same methods as in Comparative Examples 1-5, and as a control was used esculetin (purchased from Tokyo Kasei), a known compound represented by the following formula: [drawing 33] and the test was conducted at varied concentrations.
The enzyme solution was prepared according to the same manner as in Test Example 1.
The inhibition assay was performed according to the same method as described in Test Example 1 except that the same samples used in measurement of the 5-lipoxygensase activity were used to estimate IC50 values. […]
They were measured in the same method as in Test Example 1.

[1] = Test Example 5, Table 22, read-out: 5-Lipoxygenase inhibiting activity IC50 value
[2] = Test Example 5, Table 22, read-out: 12-Lipoxygenase inhibiting activity IC50 value
[3] = Test Example 2, Table 2, read-out: IC50 value of 5-lipoxygenase
[4] = Test Example 2, Table 2, read-out: IC50 value of 12-lipoxygenase
[5] = Test Example 3, Table 11, value belongs to the deacylated compound, read-out: 12-lipoxygenase inhibiting activities of deacylated compounds (IC50 values)
[6] = Test Example 1, Table 1 and text, read-out: 12-lipoxygenase IC50 value

Row | SMILES | IC50 (5-lipoxygenase; [3]) [nM] | IC50 (12-lipoxygenase; [4]) [nM] | further results
1 | O=c1oc2cc(O)c(O)cc2cc1-c1ccc2ccccc2c1 [Example 62] |  |  | IC50 (5-lipoxygenase; [1]): 65 nM; IC50 (12-lipoxygenase; [2]): 4.6 nM
2 | O=c1oc2c(O)c(O)ccc2cc1-c1ccc(Br)cc1 [Example 25, 3-(4-bromophenyl)-7,8-dihydroxycoumarin] | 420 | 13 | 
3 | O=c1oc2cc(O)c(O)cc2cc1-c1ccccc1 [Example 6, 3-phenyl-6,7-dihydroxycoumarin] | 270 | 16 | 
4 | O=c1oc2cc(O)c(O)cc2cc1-c1ccsc1 [Example 16] | 420 | 22 | 
5 | O=c1oc2c(O)c(O)ccc2cc1-c1cc(Br)cs1 [Example 33, 3-(4-bromothiophen-2-yl)-7,8-dihydroxycoumarin] | 360 | 12 | 
6 | Cc1ccc(-c2cc3cc(O)c(O)cc3oc2=O)cc1 [Example 11] | 180 | 11 | 
7 | O=c1oc2cc(O)c(O)cc2cc1-c1ccc(C(F)(F)F)cc1 [Example 14, 3-(4-trifluoromethylphenyl)-6,7-dihydroxycoumarin] | 270 | 13 | 
8 | O=c1oc2cc(O)c(O)cc2cc1-c1cc(Br)cs1 [Example 34, 3-(4-bromothiophen-2-yl)-6,7-dihydroxycoumarin] | 150 | 5.2 | IC50 (12-lipoxygenase; [5]): 5.2 nM
9 | O=c1oc2c(O)c(O)ccc2cc1-c1cccc(Cl)c1 [Example 22, 3-(3-chlorophenyl)-7,8-dihydroxycoumarin] | 270 | 9.6 | IC50 (12-lipoxygenase; [5]): 9.6 nM
10 | O=c1oc2cc(O)c(O)cc2cc1-c1cccc(Cl)c1 [Example 9, 3-(3-chlorophenyl)-6,7-dihydroxycoumarin] | 160 | 4.3 | IC50 (12-lipoxygenase; [5]): 4.3 nM
11 | O=c1oc2c(O)c(O)ccc2cc1-c1csc2ccccc12 [Example 63] |  |  | IC50 (5-lipoxygenase; [1]): 190 nM; IC50 (12-lipoxygenase; [2]): 11 nM
12 | O=c1oc2c(O)c(O)ccc2cc1-c1ccc(O)cc1 [Comp. Example 5, reference compound] |  |  | 12-lipoxygenase inhibitory activity (in words) (12-lipoxygenase): decreases greatly; IC50 (12-lipoxygenase; [6]): 1100 nM
13 | O=c1oc2cc(O)c(O)cc2cc1-c1cccs1 [Example 15, 3-(thiophen-2-yl)-6,7-dihydroxycoumarin] | 330 | 21 | 
14 | O=c1oc2cc(O)ccc2cc1-c1ccc(Cl)cc1 [Comp. Example 2, reference compound] |  |  | maximum inhibition ratio of 12-lipoxygenase (12-lipoxygenase; listed as Comparative Example 2, 10 µM): less than 10%; inhibition at 10 µM (12-lipoxygenase): 7%
15 | O=c1oc2cc(O)c(O)cc2cc1-c1ccc(F)cc1 [Example 7] | 400 | 8 | 
16 | Cc1ccc(-c2cc3ccc(O)c(O)c3oc2=O)o1 [Example 35] | 340 | 15 | 
17 | O=c1oc2c(O)c(O)ccc2cc1-c1ccc([N+](=O)[O-])cc1 [Example 23, 3-(4-nitrophenyl)-7,8-dihydroxycoumarin] | 530 | 34 | 
18 | O=c1oc2c(O)c(O)ccc2cc1-c1ccc(Cl)cc1 [Example 4, 3-(4-chlorophenyl)-7,8-dihydroxycoumarin] | 480 | 7.6 | IC50 (12-lipoxygenase; [6]): 7.6 nM and ~1 nM; IC50 (12-lipoxygenase; [5]): 7.6 nM
19 | O=c1oc2cc(O)c(O)cc2cc1-c1ccc(I)cc1 [Example 10, 3-(4-iodophenyl)-6,7-dihydroxycoumarin] | 140 | 5.8 | IC50 (12-lipoxygenase; [5]): 5.8 nM
20 | O=c1oc2cc(O)c(O)cc2cc1-c1ccc(Cl)cc1 [Example 8, 3-(4-chlorophenyl)-6,7-dihydroxycoumarin] | 260 | 7 | IC50 (12-lipoxygenase; [6]): 7 nM and ~1 nM; IC50 (12-lipoxygenase; [5]): 7 nM
21 | COc1ccc(-c2cc3ccc(O)c(O)c3oc2=O)cc1 [Example 27, 3-(4-methoxyphenyl)-7,8-dihydroxycoumarin] | 660 | 27 | 
22 | O=c1oc2cc(O)c(O)cc2cc1-c1ccc(Br)cc1 [Example 1] | 190 | 4.4 | 
23 | Cc1ccc(-c2cc3cc(O)c(O)cc3oc2=O)o1 [Example 36, 3-(5-methylfuran-2-yl)-6,7-dihydroxycoumarin] | 250 | 14 | 
24 | COc1ccc2cc(-c3ccccc3)c(=O)oc2c1OC [Comp. Example 1, reference compound] |  |  | maximum inhibition ratio of 12-lipoxygenase (12-lipoxygenase; listed as Comparative Example 1, 10 µM): less than 10%; inhibition at 10 µM (12-lipoxygenase): 5%
25 | O=c1oc2c(O)c(O)ccc2c(-c2ccccc2)c1-c1ccccc1 [Comp. Example 4, reference compound] |  |  | IC50 (12-lipoxygenase; [6]): 120 nM
